Data: patent publication US20190316211A1, “ONCOGENIC ALTERNATIVE SPLICING SWITCH OF PACE4 IN CANCER” (SOCIETE DE COMMERCIALISATION DES PRODUITS DE LA RECHERCHE …, priority 2016, published 2019)

Columns and labels:
Type in all cases: cell-based
DU145 cells = experiment: PACE4 exon 25 splicing index (PACE4-altCT/PACE4-FL mRNA) by qPCR; details: DU145, treated for 72 h
Procedure: (§1) For actinomycin-D (Sigma Aldrich) or cycloheximide (Sigma Aldrich) treatments, compounds were first dissolved in DMSO, and diluted to a final concentration of 5 μg/mL and 40 μg/mL in the culture medium respectively. Actinomycin-D treatment never exceeded 8 h, which is the time-frame prior to early apoptosis induction. For treatments wit 5-aza-2′-deoxy-cytidine (Sigma Aldrich), compound was first dissolved in DMSO and further diluted prior to addition to cell culture medium, which was changed every day and replaced with fresh one containing the compound for a total exposure of 72 h. […]
(§2) 1 μg RNA was DNase I-treated (Invitrogen), reverse-transcribed using Superscript II reverse transcriptase (Invitrogen), and RNase H-treated (Ambion, Austin, Tex.) before quantitative PCR performed using a Stratagene Mx3005P instrument. Relative expression levels were calculated using β-actin as a reference gene with the formula (1+amplification efficiency)^−(CT). […]

LNCaP cells = experiment: as above; details: treated for 72 h
Procedure: as §1, §2

[1] = system: CpG dinucleotides of interest in PCSK6 gene; experiment: CpG methylation status analysis by pyrosequencing; details: DU145 and LNCaP cells, 72 h, refreshed every 24 h
Text: FIG. 5 illustrates decitabine (5-aza-dC) efficiency at hypomethylating CpG dinucleotides of interest in PCSK6 gene, showing in (A) schematic representation of the 3′ extremity of PCSK6 gene, putting emphasis on the coding and non-coding region between exon 24, exon 25 and exon 25 alt, wherein ChiP-Seq enriched regions as viewed in UCSC genome browser ChiP-Seq are represented as ovals, each CpG nucleotide analyzed is highlighted, and the inversion of 5′ and 3′ ends is shown for reading purposes; (B) DU145 and LNCaP cells (C) were treated with decitabine at the indicated concentrations for 72 h (medium and decitabine being refreshed every 24 h) and DNA was extracted and used for CpG methylation status analysis using pyrosequencing.
DNA was purified from 14 pairs of tumoral and non-tumoral prostate biopsies and from DU145 and LNCaP cells treated with 5axa-dC using DNeasy Blood & Tissue Kit (Qiagen, #69504). Concentration, yield and purity of gDNA samples were measured using spectrometry. All samples provided good gDNA yield and quality (A260/A280 ratio between 1.7 and 2.0). Gold standard pyrosequencing technology was used to determine base-specific cytosine methylation levels located upstream of guanines (sequence called CpG dinucleotides). […] Overall, nine potentially methylated cytosines (in a CpG dinucleotides context) were analyzed at the PCSK6 gene locus.

[2] = system: CTCF binding to PCSK6 alternative terminal exon regions; experiment: Chromatin immunoprecipitation with anti-CTCF antibody; details: DU145 and LNCaP cells treated for 72 h
Procedure: Cells were cultured in 150 mm culture dishes and submitted to crosslinking through the addition of formaldehyde to a final concentration of 1.1% for 10 min at room temperature followed by a quenching step with 125 mM glycine for another 5 min. Cells were washed twice with ice-cold PBS, collected using a cell scraper and frozen in liquid nitrogen and stored at −80° C. until analyses. Cell pellets were resuspended in HEPES 10 mM pH 6.5; 0.5 mM EDTA, 0.25% Triton-X-100 and centrifugated at 4,000 rpm at 4° C. for 5 min. Pellet was further lysed by adding 200 μL of Tris 50 mM pH 8.1; 10 mM EDTA, 1% SDS and passing 3 times through a 28 G syringe. Cell preparations were incubated 1 h at 4° C. with constant agitation and nuclei were pelleted by a centrifugation at 5,000 rpm. […] DNA fragmentation was routinely assessed by agarose gel electrophoresis using 10 μL of the fragmented DNA solution (beforehand treated with RNase A 10 μg/mL for 10 min). For each IP, 350 μg of DNA were used (based on concentration determined using the OD260 nm) and 5% of the corresponding volumes were kept aside as Input DNA for quantitation. […] 3 μL of the purified DNA were further used for qPCR analyses and quantitation was established using the 1% input as a standard.

PACE4-FL = biological target: T1, PACE4-FL (Homo sapiens, UniProt P29122); experiment: PACE4 secretion assay, displacement by heparin; details: increasing doses
T1 construct: V5 (C); His (C); expressed in transfected cells
T1 sequence (P29122 150-969): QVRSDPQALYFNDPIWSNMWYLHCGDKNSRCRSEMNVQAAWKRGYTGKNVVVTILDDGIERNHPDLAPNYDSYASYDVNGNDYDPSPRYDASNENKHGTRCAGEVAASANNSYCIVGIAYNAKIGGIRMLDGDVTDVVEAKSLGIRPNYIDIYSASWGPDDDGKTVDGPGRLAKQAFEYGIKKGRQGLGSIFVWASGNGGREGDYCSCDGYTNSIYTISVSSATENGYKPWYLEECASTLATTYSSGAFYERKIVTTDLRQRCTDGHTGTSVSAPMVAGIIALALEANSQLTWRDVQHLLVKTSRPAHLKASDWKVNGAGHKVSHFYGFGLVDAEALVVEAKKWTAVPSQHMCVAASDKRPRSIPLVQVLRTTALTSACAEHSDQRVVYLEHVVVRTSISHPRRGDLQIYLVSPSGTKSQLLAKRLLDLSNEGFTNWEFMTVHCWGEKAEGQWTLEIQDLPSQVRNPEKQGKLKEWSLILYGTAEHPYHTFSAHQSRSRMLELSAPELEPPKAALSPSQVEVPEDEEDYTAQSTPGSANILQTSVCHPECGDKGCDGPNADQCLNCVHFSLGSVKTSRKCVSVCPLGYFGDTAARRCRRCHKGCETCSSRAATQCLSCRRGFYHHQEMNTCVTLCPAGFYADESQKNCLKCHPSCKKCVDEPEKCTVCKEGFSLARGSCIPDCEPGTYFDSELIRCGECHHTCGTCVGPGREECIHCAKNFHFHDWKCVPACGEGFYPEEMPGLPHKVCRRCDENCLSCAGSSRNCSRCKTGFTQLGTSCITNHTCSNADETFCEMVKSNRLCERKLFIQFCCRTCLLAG
Text: (§3) The first major distinction observed was the lack of secretion of PACE4-altCT accompanied with intracellular retention when compared to PACE4-FL which was efficiently secreted in the medium (FIGS. 7B and C). This observation correlated with the distinct cell distribution observed for each isoforms in IHC, i.e. the PACE4-FL being more accumulated at the membrane/extracellular surface compared to PACE4-altCT being restricted to the vesicular intracellular compartment (FIG. 3D). PACE4, at least PACE4-FL, is known to be secreted in the medium and to be retained in the extracellular matrix through the binding to heparan sulfate proteoglycans by its cysteine-rich domain and to be displaceable by heparin.
(§4) For PACE4 secretion assays, cells were plated at equal densities in 6-well plates for 24 h in complete medium. 24 h later, the medium was replaced by the minimal volume required of fresh culture medium (600 μL without FBS) and the cells were either allowed to secrete for the indicated time (for secretion kinetics) or (for inhibitor treatments) allowed to secrete for an additional 24 h in the presence of the indicated concentrations of agents (heparin (Sandoz, Niirnberg, Germany), 2-bromopalmitate (Sigma Aldrich), FTI-277 (Sigma Aldrich), GGTI-2133 (Santa Cruz Biotechnology Inc., Santa Cruz, Calif., USA)

PACE4-altCT = biological target: T2, PACE4-altCT (Homo sapiens, UniProt P29122); experiment: PACE4 secretion assay, displacement by heparin; details: increasing doses
T2 construct: V5 (C); His (C); expressed in transfected cells
T2 sequence (P29122 with tags, fused parts or gaps limits assumed): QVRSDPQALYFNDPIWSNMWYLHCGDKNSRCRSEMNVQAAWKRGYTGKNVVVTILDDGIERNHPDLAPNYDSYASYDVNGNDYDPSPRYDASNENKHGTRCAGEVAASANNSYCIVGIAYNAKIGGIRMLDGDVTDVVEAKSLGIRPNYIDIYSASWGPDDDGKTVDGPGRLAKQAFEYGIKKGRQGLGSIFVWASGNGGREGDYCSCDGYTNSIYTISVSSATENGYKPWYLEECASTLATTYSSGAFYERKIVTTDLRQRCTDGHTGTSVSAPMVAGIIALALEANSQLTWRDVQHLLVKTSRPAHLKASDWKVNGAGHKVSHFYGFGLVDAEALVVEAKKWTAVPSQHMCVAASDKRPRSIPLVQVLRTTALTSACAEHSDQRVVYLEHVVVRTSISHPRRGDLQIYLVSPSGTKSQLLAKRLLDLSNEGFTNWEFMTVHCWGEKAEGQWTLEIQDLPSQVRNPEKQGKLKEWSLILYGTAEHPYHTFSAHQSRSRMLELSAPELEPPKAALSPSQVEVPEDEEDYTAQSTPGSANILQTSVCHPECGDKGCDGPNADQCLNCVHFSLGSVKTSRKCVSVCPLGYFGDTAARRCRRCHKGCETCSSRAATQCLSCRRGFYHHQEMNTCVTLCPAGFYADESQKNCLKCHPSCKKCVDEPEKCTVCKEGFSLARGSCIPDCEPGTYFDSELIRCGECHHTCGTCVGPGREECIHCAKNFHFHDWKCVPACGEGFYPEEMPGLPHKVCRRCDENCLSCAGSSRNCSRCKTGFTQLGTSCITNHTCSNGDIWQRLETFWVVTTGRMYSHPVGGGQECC
Text: as §3, §4

CTCF ChIP enrichment of intra-exonic and upstream region [2]	displacement into the medium by heparin (PACE4-FL)	displacement into the medium by heparin (PACE4-altCT)	Molecule	change of splicing index (DU145 cells)	change of splicing index (LNCaP cells)	CpG hypomethylation [1]
clear enrichment	–	–	Nc1ncn([C@H]2C[C@H](O)[C@@H](CO)O2)c(=O)n1 [decitabine, 5-aza-2′-deoxycytidine]	increased in a dose-dependent manner	increased in a dose-dependent manner	sensitive to decitabine in a dose-dependent manner
–	increased amount in the medium	could not be displaced	heparin	–	–	–
